Results reported in patent publication US7674451B2, “Cosmetic or pharmaceutical composition comprising peptides, uses and treatment processes” (ISP Investments Inc., priority 2002, dated 2010).
Where a SMILES comes first, the peptide text is derived from it.

System: ERG 1-2 molecule
Assay: Cell differentiation marker ERG 1-2 in HaCat keratinocytes, immunofluorescence
Format: cell-based
Conditions: HaCat human keratinocytes, 24 hours

quantity of ERG molecules present in the cells (intensity of fluorescence): increases
SMILES: N=C(N)NCCC[C@H](N)C(=O)NCC(=O)N[C@@H](CO)C(=O)O [Arg-Gly-Ser] (H-Arg-Gly-Ser-OH)
